Tested on: cucumber anthracnose (黄瓜炭疽病)
Experiment: In vivo protective activity against cucumber anthracnose (potted plants, inoculation 24 h after spraying)

SMILES: O=C(NCCc1ccc(F)cc1)c1ccc(-c2cccs2)nc1CCl [24.3]
- control effect (6.5 mg/L): 98%
- control effect (25 mg/L): 100%
- control effect (100 mg/L): > 98%
- control effect (400 mg/L): 100%
